# Read-outs that look alike come from different tables or passages of the source.
# Tests used:
# Clone 25 (R5~X4_2) = format: cell-based, HIV-1; details: PBMCs; Clone 25 envelope in NL4-3 infectious clone, tropism subtype R5~X4
# Procedure: (§1) First, 35 gp160 envelope genes derived from different patient samples that were originally identified as dual-tropic were cloned into an expression vector as described in Example 1. Tropism of pseudotyped virus was determined by measuring luciferase activity (relative light units, RLU) following infection of U87/CD4+CCR5+ or U87/CD4+CXCR4+ cells as described above. Inhibition of infection by small molecule CCR5-(Merck) and CXCR4-(AMD3100; AnorMED) inhibitors was examined on U87/CD4+CCR5+CXCR4+ cells, U87/CD4+CXCR4+ cells, and U87/CD4+CCR5+ cells. A subset of the envelope genes were also inserted into an NL4-3 infectious clone and evaluated for their ability to infect PBMCs in the presence of the CCR5- or CXCR4-inhibitors.
# Clone 22 (R5~X4_4) = format: cell-based, HIV-1; details: PBMCs; Clone 22 envelope in NL4-3 infectious clone, tropism subtype R5~X4
# Procedure: as §1
# Clone 4 (R5 >> X4_1) = format: cell-based, HIV-1; details: PBMCs; Clone 4 envelope in NL4-3 infectious clone, tropism subtype R5 >> X4
# Procedure: as §1
# Clone 34 (X4 >> R5_1) = format: cell-based, HIV-1; details: PBMCs; Clone 34 envelope in NL4-3 infectious clone, tropism subtype X4 >> R5
# Procedure: as §1
# Clone 11 (R5 >> X4_2) = format: cell-based, HIV-1; details: PBMCs; Clone 11 envelope in NL4-3 infectious clone, tropism subtype R5 >> X4
# Procedure: as §1
# NL43 (X4) = format: cell-based, HIV-1; details: PBMCs; NL43, tropism subtype X4
# Procedure: as §1
# Clone 31 (X4 >> R5_3) = format: cell-based, HIV-1; details: PBMCs; Clone 31 envelope in NL4-3 infectious clone, tropism subtype X4 >> R5
# Procedure: as §1
# JRCSF (R5) = format: cell-based, HIV-1; details: PBMCs, tropism subtype R5
# Procedure: as §1
# Clone 33 (X4 >> R5_2) = format: cell-based, HIV-1; details: PBMCs; Clone 33 envelope in NL4-3 infectious clone, tropism subtype X4 >> R5
# Procedure: as §1
# Clone 26 (R5~X4_1) = format: cell-based, HIV-1; details: PBMCs; Clone 26 envelope in NL4-3 infectious clone, tropism subtype R5~X4
# Procedure: as §1
# Clone 28 (R5~X4_3) = format: cell-based, HIV-1; details: PBMCs; Clone 28 envelope in NL4-3 infectious clone, tropism subtype R5~X4
# Procedure: as §1
# Dual_X-tropic viruses = details: fully replication competent Dual_X-tropic viruses, PBMCs
# Procedure: as §1
# [1] = test system: primarily CCR5-tropic viruses; format: cell-based, HIV-1; details: primarily CCR5-tropic viruses into CCR5- and CXCR4-expressing cells
# Procedure: (§2) Susceptibility assays for HIV-1 entry inhibitors were performed using packaging host cells consisting of the human embryonic kidney cell line 293 (Cell Culture Facility, UC San Francisco, SF, Calif.) and target host cells consisting of a human osteosarcoma (HOS) cell line expressing CD4 (HT4) plus CCR5, and CXCR4, or astrocytoma (U-87) cell lines expressing either CD4 and CCR5 or CD4 and CXCR4.
# (§3) Drug susceptibility testing was performed using pHIVenv and pHIVluc or pHIVlucΔU3. Pseudotyped HIV particles containing envelope proteins encoded by the subject derived segment were produced by transfecting a packaging host cell (HEK 293) with resistance test vector DNA. […] After infection (˜72 h) the target cells are lysed and luciferase activity is measured. […] The amount of luciferase activity detected in the infected cells is used as a direct measure of “infectivity” (FIGS. 1 and 2). […]
# (§4) Drug susceptibility is assessed by comparing the infectivity in the absence of drug to infectivity in the presence of drug. […]
# (§5) First, 35 gp160 envelope genes derived from different patient samples that were originally identified as dual-tropic were cloned into an expression vector as described in Example 1. Tropism of pseudotyped virus was determined by measuring luciferase activity (relative light units, RLU) following infection of U87/CD4+CCR5+ or U87/CD4+CXCR4+ cells as described above. […]
# dual-tropic viruses = assay: Infection of PBMCs by fully replication competent viruses (FIG. 7, summary); format: cell-based, HIV-1
# Procedure: as §1
# [2] = test system: primarily CXCR4-tropic viruses; assay: Entry of pseudotyped viruses into U87 cells in presence of co-receptor inhibitors (FIG. 5); format: cell-based, HIV-1
# Procedure: as §2, §3, §4, §5
# [3] = test system: dual-tropic HIV-1 variants; details: for suppression of CXCR4-tropic virus: patients, 10 days of therapy
# Procedure: First, samples from 26 subjects administered AMD3100 for 10 days were obtained prior to therapy and on day 11 following the 10 days of therapy. Co-receptor tropism of the viral populations from both sets of samples were then determined according to Example 1. […] 37(2):1253-62.
# [4] = subjects with mixed populations, following treatment
structure (smiles),measurement,setting,value
"c1cc(CN2CCCNCCNCCCNCC2)ccc1CN1CCCNCCNCCCNCC1 [AMD, AMD3100]",% inhibition,Clone 25 (R5~X4_2),27%
same,% inhibition,Clone 22 (R5~X4_4),−12%
same,% inhibition,Clone 4 (R5 >> X4_1),−1%
same,% inhibition,Clone 34 (X4 >> R5_1),99%
same,% inhibition,Clone 11 (R5 >> X4_2),−3%
same,% inhibition,NL43 (X4),99%
same,% inhibition,Clone 31 (X4 >> R5_3),98%
same,% inhibition,JRCSF (R5),11%
same,% inhibition,Clone 33 (X4 >> R5_2),99%
same,% inhibition,Clone 26 (R5~X4_1),41%
same,% inhibition,Clone 28 (R5~X4_3),19%
same,inhibition of entry,Dual_X-tropic viruses,substantially inhibited
same,inhibition of entry,[1],not inhibited
same,inhibition of entry,dual-tropic viruses,partially inhibited
same,inhibition of entry,[2]; primarily CXCR4-tropic viruses into CCR5- and CXCR4-expressing cells,inhibited
same,inhibition of entry,[2]; primarily CXCR4-tropic viruses into CXCR4-expressing cells,inhibited
same,suppression of CXCR4-tropic virus,[3]; populations comprising 100% dual viruses (homogeneous) at baseline,not suppressed
same,suppression of CXCR4-tropic virus,[3]; populations containing mixtures of CCR5-tropic and CXCR4-tropic or dual-tropic viruses at baseline,experienced suppression
same,entry into cells using the CXCR4 co-receptor,[3]; [4],efficiently blocked
same,entry using the CCR5 co-receptor,[3]; [4],unaffected

# Source: US10358683B2, “Compositions and methods for determining whether a subject would benefit from co-receptor inhibitor therapy” (priority 2007, dated 2019)
